The target in data set [1] is rat brain bradykinin receptors. Put plainly: Radioligand competition binding against [3H]DALKD in rat brain membranes. As to conditions: for IC50: [3H]DALKD. The protocol:
Binding affinities of dynorphin A analogs at the bradykinin receptors were determined by radioligand competition analysis using [^3H]DALKD or [^3H]BK in rat brain membranes or transfected HEK 293 cells expressing the human B2R. Crude rat brain membranes were pelleted and resuspended in 50 mM Tris buffer containing 50 μg/mL bacitracin, 10 μM captopril, 100 μM PMSF, and 5 mg/mL BSA. 10 concentrations of a test compound were each incubated with 50 μg of membranes and [^3H]DALKD (1 nM, 76.0 Ci/mmol) or [^3H]BK (1 nM, 85.4 Ci/mmol) at 25° C. for 2 h. Non-specific binding was defined by that in the presence of […] KD in all assays. Reactions were terminated by rapid filtration through Whatman GF/B filters presoaked in 1% polyethyleneimine, followed with four washes of 2 mL cold saline. Radioactivity was determined by liquid scintillation counting in a Beckman LS5000 TD. Data were analyzed by non-linear least squares analysis using GraphPad Prism (Version 4). […]
In general terms: Loss of bound radioactivity is the signal in a displacement assay; it reports binding, not function.

In the next data set the test system is naive rats. The experiment in a line: Motor function and paralysis after intrathecal injection (hindlimb tests, tail-flick) in naive rats. The data set is classed as in vivo, rat. As to conditions: intrathecal injection, naive rats. The protocol:
Intrathecal (i.th.) catheterization. While under ketamine/xylazine (80/12 mg/kg, i.p.) anesthesia, some groups of rats were implanted with i.th. catheters (polyethylene 10, 7.8 cm) through atlanto-occipital membrane extended to the level of the lumbar spinal cord for drug administration. Animals were allowed to recover for 7 days. Drugs were injected in a volume of 5 μl, followed by a 1 μl air bubble and a 9 μl saline flush.
Tail-flick test. The hot-water tail-flick test was performed by placing the distal third of the tail in a water bath maintained at 52° C. The latency until tail withdrawal from the bath was determined and compared among the treatments. A 10 sec cutoff was used to avoid tissue damage. Data were converted to percentage of antinociception by the following formula: (response latency−baseline latency)/(cutoff−baseline latency)*100.

The next data set concerns guinea pig ileum. As to conditions: compared with the enkephalins and β-endorphin; cited from earlier work.
The nature of data set [2]: Stability in plasma (t1/2).
The mark [3] stands for this setting: Table 1, brain bradykinin receptors, pH 6.8, read-out: IC50 (nM) at pH 6.8, n ≥ 2.
Where [4] appears, read: Table 3, rat brain bradykinin receptors, pH 7.4, read-out: IC50 (nM) at pH 7.4, N > 2.
The mark [5] stands for this setting: Table 1, brain bradykinin receptors, pH 7.4, read-out: IC50 (nM) at pH 7.4, n ≥ 2.
The mark [6] stands for this setting: Table 6, rat brain bradykinin receptors, pH 7.4, read-out: IC50 (nM) at pH 7.4, N > 2.
Setting [7] is: Table 5, rat brain bradykinin receptors, pH 7.4, read-out: IC50 (nM) at pH 7.4, N > 2.
Setting [8] is: Table 2, rat brain bradykinin receptors, pH 7.4, read-out: IC50 (nM) at pH 7.4, n > 2.
Where [9] appears, read: Table 6, rat brain bradykinin receptors, pH 6.8, read-out: IC50 (nM), cell marked at pH 6.8.
Setting [10] is: Table 4, rat brain bradykinin receptors, pH 7.4, read-out: IC50 (nM) at pH 7.4, N > 2.
[11] abbreviates: Table 5, rat brain bradykinin receptors, pH 6.8, read-out: IC50 (nM), cell marked at pH 6.8.

As usually defined, the IC50 is the concentration at which inhibition is half-maximal. A word on the half-life: it is how long it takes for the measured level to halve. A high value points to slow decline.

Like-named read-outs stand apart in the source and are kept apart here. Square brackets hold non-standard residues; d marks the D form. Ends that are not written are not given here. Nle = CCCC[C@H](N)C(=O)O

For “RIRPKLK [LYS1114, Arg-Ile-Arg-Pro-Lys-Leu-Lys]”, in data set [1] (setting [3]), the IC50 came to 72 nM.
Regarding GFLR [LYS1031, Gly-Phe-Leu-Arg-NH2], the IC50 in data set [1] (setting [4]) was greater than 10000 nM.
Take `CC[C@H](C)[C@H](NC(=O)[C@H](CCCNC(=N)N)NC(=O)[C@H](CCCNC(=N)N)NC(=O)[C@H](CC(C)C)NC(=O)[C@H](Cc1ccccc1)NC(=O)CNC(=O)CN)C(=O)N[C@@H](CCCNC(=N)N)C(=O)N1CCC[C@H]1C(=O)N[C@@H](CCCCN)C(=O)N[C@@H](CC(C)C)C(=O)N[C@@H](CCCCN)C(=O)O` [Dyn (2-13), Gly-Gly-Phe-Leu-Arg-Arg-Ile-Arg-Pro-Lys-Leu-Lys, reference compound]: the “motor function after intrathecal (spinal) injection” value in the data set with naive rats was “produces disturbances of motor function and antinociception”. Besides, the values for the concentration for half-maximal inhibition (IC50) in data set [1] (setting [3]) and in data set [1] (setting [5]) were 21 nM and 170 nM, respectively.
In the case of “LYS1107: modified dynorphin A analog; Table 6 prints only the change: Nle at position 12 (PK[Nle]K; ends and bridges not checked; also: modified dynorphin A analog, full sequence beyond listed fragment not given here)”, the IC50 in data set [1] (setting [6]) stood at 72 nM.
Take “LRIRPK [LYS1043, Leu-Arg-Ile-Arg-Pro-Lys]”: the IC50 in data set [1] (setting [7]) was 180 nM.
For FLRLRPR [AN106], the IC50 in data set [1] (setting [6]) amounted to 100 nM.
Turning to GFLRR [BP006D, Gly-Phe-Leu-Arg-Arg], the IC50 in data set [1] (setting [8]) was 8100 nM.
As for “RIRPKL [RK108, Arg-Ile-Arg-Pro-Lys-Leu-NH2]”, the IC50 in data set [1] (setting [4]) came to 6300 nM.
Consider FIRIRPR [AN105], for which the concentration for half-maximal inhibition (IC50) in data set [1] (setting [6]) worked out at 110 nM.
Regarding “SH124: modified dynorphin A analog; Table 6 prints only changes: Nle at 8, Lys at 9, Nle at 12 ([Nle]KPK[Nle]K; ends and bridges not checked; also: modified dynorphin A analog, full sequence beyond listed fragment not given here)”, the half-maximal inhibitory concentration (IC50) in data set [1] (setting [9]) turned out to be 78 nM.
As for “AN108-1: dynorphin A analog; Table 4 prints only changes: Ac- at 4, Nle at 5, Nle at 8, Arg at 11 (Ac-F[Nle]R[Nle]RPR)”, in data set [1] (setting [10]), the IC50 stood at 140 nM.
As to “GFLRRIRPKLK [LYS1021, Gly-Phe-Leu-Arg-Arg-Ile-Arg-Pro-Lys-Leu-Lys]”, in data set [1] (setting [8]), the IC50 was determined as 320 nM.
Turning to “Tyr-Gly-Gly-Phe-Leu-Arg-Arg-Ile-Arg-Pro-Lys-Leu-Lys (YGGFLRRIRPKLK; listed as Homo sapiens) [dynorphin A-(1-13)]”, the “activity in guinea pig ileum test” value in the data set on guinea pig ileum is “substantially more active than the enkephalins and β-endorphin”.
In the case of “IRPKLK [LYS1039, Ile-Arg-Pro-Lys-Leu-Lys]”, the figures for the IC50 in data set [1] (setting [3]) and in data set [1] (setting [5]) were 63 nM and 81 nM, respectively.
For the compound “GGFLRIRPKLK [CYF103, Gly-Gly-Phe-Leu-Arg-Ile-Arg-Pro-Lys-Leu-Lys]”, the IC50 in data set [1] (setting [3]) and in data set [1] (setting [11]) was 41 nM throughout.
Regarding GFLR [LYS1035, Gly-Phe-Leu-Arg], the IC50 in data set [1] (setting [8]) and in data set [1] (setting [4]) was 950 nM throughout.
As to “GFLRRI [LYS1004, Gly-Phe-Leu-Arg-Arg-Ile]”, the IC50 in data set [1] (setting [8]) came out at 2300 nM.
With “LRIRPKLK [LYS1040, Leu-Arg-Ile-Arg-Pro-Lys-Leu-Lys]”, the IC50 in data set [1] (setting [3]) came out at 30 nM; in data set [1] (setting [5]), 68 nM; in data set [1] (setting [7]), 68 nM.
With “FLRRIRPK [Analogs S1F, Phe-Leu-Arg-Arg-Ile-Arg-Pro-Lys-NH2]”, in data set [1] (setting [4]), the IC50 amounted to 6800 nM.
In the case of IRPKL [RK107, Ile-Arg-Pro-Lys-Leu-NH2], the IC50 in data set [1] (setting [4]) is 8700 nM.
For FLRIRPR [AN104], the IC50 in data set [1] (setting [10]) and in data set [1] (setting [6]) was 210 nM throughout.
For the compound WLRIRPK [AN103], the IC50 in data set [1] (setting [6]) turned out to be 190 nM.
As to “Ac-Phe-Leu-Arg-Ile-Arg-Pro-DLys (Ac-FLRIRP[dK]) [AP111]”, the half-inhibitory concentration (IC50) in data set [1] (setting [4]) was determined as 550 nM.
Turning to RPKLK [LYS1113, Arg-Pro-Lys-Leu-Lys], the IC50 in data set [1] (setting [3]) is 58 nM.
Consider “GFLRRIRPK [LYS1027, Gly-Phe-Leu-Arg-Arg-Ile-Arg-Pro-Lys]”, for which the IC50 in data set [1] (setting [8]) is 130 nM.
Regarding “AN108-4: dynorphin A analog; Table 4 prints only changes: Ac-DPhe at 4, Nle at 5, Nle at 8, Arg at 11 (Ac-[dF][Nle]R[Nle]RPR)”, the IC50 in data set [1] (setting [10]) was 54 nM.
Consider “GFLRIR [Analogs J101, Gly-Phe-Leu-Arg-Ile-Arg]”, for which, in data set [1] (setting [7]), the IC50 was 620 nM.
Turning to `CC[C@H](C)[C@H](NC(=O)[C@H](CCCNC(=N)N)NC(=O)[C@@H](CC(C)C)NC(=O)[C@@H](N)Cc1ccccc1)C(=O)N[C@@H](CCCNC(=N)N)C(=O)N1CCC[C@H]1C(=O)N[C@@H](CCCCN)C(=O)O` [SH145], the half-life in data set [2] was greater than 24 h. For the same compound, the IC50 in data set [1] (setting [9]) amounted to 99 nM. Further, the “binding affinity at bradykinin receptors (in words)” value in data set [1] (rat brain bradykinin receptors) was “retained the same high binding affinity as LYS1044”.
With “FLRRIRPK [LYS1026, Phe-Leu-Arg-Arg-Ile-Arg-Pro-Lys]”, the IC50 is 69 nM in data set [1] (setting [3]), 140 nM in data set [1] (setting [5]) and 140 nM in data set [1] (setting [4]).
With “AN101: modified dynorphin A analog; Table 6 prints only the change: Nle at position 8 (FLR[Nle]RPK)”, the half-inhibitory concentration (IC50) in data set [1] (setting [6]) amounted to 140 nM.
Consider “GFLRIRPKLK [LYS1042, Gly-Phe-Leu-Arg-Ile-Arg-Pro-Lys-Leu-Lys]”, for which the half-inhibitory concentration (IC50) in data set [1] (setting [3]) is 26 nM; in data set [1] (setting [5]), 41 nM; in data set [1] (setting [7]), 43 nM.
On to PKLK [LYS1038, Pro-Lys-Leu-Lys], for which the half-maximal inhibitory concentration (IC50) in data set [1] (setting [3]) is 210 nM; in data set [1] (setting [5]), 120 nM.
With “GFLRRIRPKL [LYS1024, Gly-Phe-Leu-Arg-Arg-Ile-Arg-Pro-Lys-Leu]”, the IC50 in data set [1] (setting [8]) turned out to be 280 nM.
Turning to “FLRRIRRPK [SH114, Phe-Leu-Arg-Arg-Ile-Arg-Arg-Pro-Lys]”, the IC50 in data set [1] (setting [11]) came out at 74 nM.
For “LRRIRPKL [LYS1022, Leu-Arg-Arg-Ile-Arg-Pro-Lys-Leu]”, in data set [1] (setting [4]), the IC50 came to 7100 nM.
Take “GFLRRIR [Analogs J104, Gly-Phe-Leu-Arg-Arg-Ile-Arg]”: the IC50 in data set [1] (setting [8]) came to 780 nM.
Consider “FLRIRPK [AP107-1, Ac-Phe-Leu-Arg-Ile-Arg-Pro-Lys]”, for which the 50% inhibitory concentration (IC50) in data set [1] (setting [4]) and in data set [1] (setting [10]) was 120 nM in each case.
For “GFLRIRPK [LYS1045, Gly-Phe-Leu-Arg-Ile-Arg-Pro-Lys]”, the IC50 in data set [1] (setting [7]) came to 130 nM.
In the case of “AN109: dynorphin A analog; Table 4 prints only changes: Ac- in Gly^3 column, Nle at 5, Nle at 8, Arg at 11 (Ac-GF[Nle]R[Nle]RPR)”, the IC50 in data set [1] (setting [10]) was 210 nM.
As for “GFLRRIRP [BP1004D, Gly-Phe-Leu-Arg-Arg-Ile-Arg-Pro]”, the IC50 in data set [1] (setting [8]) is 1200 nM.

The record behind these values is patent publication US10428115B2, “Dynorphin A analogs with bradykinin receptors specificity for modulation of neuropathic pain” (THE ARIZONA BOARD OF REGENTS ON BEHALF OF THE UNIVERSITY OF …, priority 2013, dated 2019).
